From patent US20200291018A1, “TAM KINASE INHIBITORS” (SYROS PHARMACEUTICALS, INC., priority 2017, published 2020)

Key:
TYRO3 = target: T1, TYRO3 (Homo sapiens, UniProt Q06418); assay: TR-FRET kinase activity assay, TYRO3; type: biochemical; conditions: ATP at Km, 60 minutes
T1 sequence (Q06418 41-890): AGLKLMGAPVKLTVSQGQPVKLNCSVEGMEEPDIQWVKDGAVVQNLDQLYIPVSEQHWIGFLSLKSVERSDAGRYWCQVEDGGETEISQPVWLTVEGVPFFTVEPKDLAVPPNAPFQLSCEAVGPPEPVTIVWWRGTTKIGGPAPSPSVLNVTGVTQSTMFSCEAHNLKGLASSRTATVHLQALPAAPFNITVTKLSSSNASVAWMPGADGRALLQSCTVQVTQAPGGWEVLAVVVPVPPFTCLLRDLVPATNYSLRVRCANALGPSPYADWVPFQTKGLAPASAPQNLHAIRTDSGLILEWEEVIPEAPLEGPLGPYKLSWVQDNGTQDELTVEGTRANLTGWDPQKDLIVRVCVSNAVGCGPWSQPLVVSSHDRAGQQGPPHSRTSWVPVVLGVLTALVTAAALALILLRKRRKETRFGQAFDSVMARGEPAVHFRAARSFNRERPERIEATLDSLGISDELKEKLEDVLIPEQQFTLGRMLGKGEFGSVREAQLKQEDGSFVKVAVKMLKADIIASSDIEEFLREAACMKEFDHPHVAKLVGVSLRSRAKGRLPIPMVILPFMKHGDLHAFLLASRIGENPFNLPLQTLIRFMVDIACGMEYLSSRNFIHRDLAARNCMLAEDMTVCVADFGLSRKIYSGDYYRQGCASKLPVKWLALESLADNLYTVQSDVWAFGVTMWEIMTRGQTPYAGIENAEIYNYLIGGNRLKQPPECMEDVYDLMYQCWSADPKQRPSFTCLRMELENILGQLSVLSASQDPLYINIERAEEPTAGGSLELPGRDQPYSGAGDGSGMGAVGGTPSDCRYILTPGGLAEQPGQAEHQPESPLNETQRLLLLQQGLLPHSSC
Method in brief: (§1)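 Each kinase phosphorylates a fluorescently labeled peptide on tyrosine in the presence of compound, with ATP at its Km, for 60 min at RT in HEPES pH 7.5 buffer with MgCl2, EGTA, Brij 35 and DTT. Product is detected by TR-FRET with a Europium-labeled phospho-specific antibody; IC50 values follow.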

FLT3 = target: T2, FLT3 (Homo sapiens, UniProt P36888); assay: TR-FRET kinase activity assay, FLT3; type: biochemical; conditions: ATP at Km, 60 minutes
T2 sequence (P36888 27-993): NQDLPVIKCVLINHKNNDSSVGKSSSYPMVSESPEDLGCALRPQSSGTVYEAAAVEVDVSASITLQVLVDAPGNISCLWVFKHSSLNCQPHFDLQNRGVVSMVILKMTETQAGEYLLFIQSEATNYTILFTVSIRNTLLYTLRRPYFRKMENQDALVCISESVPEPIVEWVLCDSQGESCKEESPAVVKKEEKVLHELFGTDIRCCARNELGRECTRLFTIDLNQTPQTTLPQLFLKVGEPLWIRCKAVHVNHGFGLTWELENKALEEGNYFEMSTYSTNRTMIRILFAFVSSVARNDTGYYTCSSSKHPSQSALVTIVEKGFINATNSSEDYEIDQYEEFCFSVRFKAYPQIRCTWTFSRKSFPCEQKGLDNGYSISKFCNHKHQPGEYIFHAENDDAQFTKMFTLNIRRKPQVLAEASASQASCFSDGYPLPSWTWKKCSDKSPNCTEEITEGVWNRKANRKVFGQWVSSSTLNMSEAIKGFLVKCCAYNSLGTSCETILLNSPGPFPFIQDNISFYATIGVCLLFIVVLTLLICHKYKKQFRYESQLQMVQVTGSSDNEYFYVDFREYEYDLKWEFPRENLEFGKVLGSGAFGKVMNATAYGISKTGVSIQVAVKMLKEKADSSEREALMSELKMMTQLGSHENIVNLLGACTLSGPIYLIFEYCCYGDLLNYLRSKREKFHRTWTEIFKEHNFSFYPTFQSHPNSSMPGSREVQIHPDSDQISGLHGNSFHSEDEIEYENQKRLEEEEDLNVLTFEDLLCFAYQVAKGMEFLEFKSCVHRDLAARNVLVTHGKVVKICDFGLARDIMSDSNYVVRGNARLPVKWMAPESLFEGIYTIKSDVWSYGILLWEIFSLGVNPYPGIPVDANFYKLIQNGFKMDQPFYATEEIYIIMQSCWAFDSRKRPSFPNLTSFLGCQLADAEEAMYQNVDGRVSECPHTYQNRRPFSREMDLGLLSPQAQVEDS
Method in brief: as §1

IC50 (TYRO3): ≤ 100 nM | IC50 (FLT3): 100 to 1000 nM
Structure (SMILES): Cc1nccc(N2CCC(Oc3ncc([C@H]4CC[C@H](O)CC4)c4nc(N[C@@H](C)CC(F)(F)F)ncc34)CC2)n1 [Compound 375]
